Key:
Assay in all cases: relative viability (nuclei count vs DMSO), 5 days (fraction); higher = more cells survive
XMD13-2 = compound: C1CC1C(=O)NC2=NNC3=C2C=CC(=C3)C4=CC(=CC=C4)C(=O)NC5CC5 [XMD13-2]
Summary of the method: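 In 1536-well plates, lung cancer cell lines rested overnight at 37 °C before five library-drug doses (not always all listed), √10 apart, were pinned onto vehicle-anchored plates. Nuclei were counted with MetaXpress from 4× Hoechst images taken after 5 days without medium change. Viability compares treated-well with vehicle-well nuclei as a median over plates, and plates needed control CV below 25% plus at least one doubling to pass.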

ALW-II-49-7 + Pictilisib = compound: Cc1ccc(C(=O)Nc2cccc(C(F)(F)F)c2)cc1Nc1cncc(C(N)=O)c1 [ALW-II-49-7] + CS(=O)(=O)N1CCN(Cc2cc3nc(-c4cccc5[nH]ncc45)nc(N4CCOCC4)c3s2)CC1 [Pictilisib] (partner 1 µM)
Summary of the method: (§1)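 Five library-drug doses in √10 steps were combined with a fixed anchor-drug dose, or a single drug was given alone, by pin tool to lung cancer cell lines in 1536-well plates the day after seeding. Nuclei were stained and counted after 5 days. Relative viability is the nuclei count in treated wells over that in vehicle wells, taken as the median of duplicate plates.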

ALW-II-49-7 + Linsitinib = compound: Cc1ccc(C(=O)Nc2cccc(C(F)(F)F)c2)cc1Nc1cncc(C(N)=O)c1 [ALW-II-49-7] + C[C@]1(O)C[C@@H](c2nc(-c3ccc4ccc(-c5ccccc5)nc4c3)c3c(N)nccn32)C1 [Linsitinib] (partner 1 µM)
Summary of the method: as §1

Dasatinib + AZD7762 = compound: Cc1nc(Nc2ncc(C(=O)Nc3c(C)cccc3Cl)s2)cc(N2CCN(CCO)CC2)n1 [Dasatinib] + NC(=O)Nc1cc(-c2cccc(F)c2)sc1C(=O)N[C@H]1CCCNC1 [AZD7762] (partner 0.2 µM)
Summary of the method: as §1

| Cell Line | relative viability (XMD13-2; 0.05 µM) | relative viability (XMD13-2; 0.1581 µM) | relative viability (XMD13-2; 0.5 µM) | relative viability (XMD13-2; 1.581 µM) | relative viability (XMD13-2; 5 µM) | relative viability (ALW-II-49-7 + Pictilisib; first compound 0.08 µM) | relative viability (ALW-II-49-7 + Pictilisib; first compound 0.253 µM) | relative viability (ALW-II-49-7 + Pictilisib; first compound 0.8 µM) | relative viability (ALW-II-49-7 + Pictilisib; first compound 2.53 µM) | relative viability (ALW-II-49-7 + Pictilisib; first compound 8 µM) | relative viability (ALW-II-49-7 + Linsitinib; first compound 0.08 µM) | relative viability (ALW-II-49-7 + Linsitinib; first compound 0.253 µM) | relative viability (ALW-II-49-7 + Linsitinib; first compound 0.8 µM) | relative viability (ALW-II-49-7 + Linsitinib; first compound 2.53 µM) | relative viability (ALW-II-49-7 + Linsitinib; first compound 8 µM) | relative viability (Dasatinib + AZD7762; first compound 0.005 µM) | relative viability (Dasatinib + AZD7762; first compound 0.01581 µM) | relative viability (Dasatinib + AZD7762; first compound 0.05 µM) | relative viability (Dasatinib + AZD7762; first compound 0.1581 µM) | relative viability (Dasatinib + AZD7762; first compound 0.5 µM) |
| --- | --- | --- | --- | --- | --- | --- | --- | --- | --- | --- | --- | --- | --- | --- | --- | --- | --- | --- | --- | --- |
| LC-2-ad | 1.03 | 1.04 | 1.03 | 0.94 | 0.994 | 0.427 | 1.04 | 0.31 | 0.542 | 0.555 | 0.834 | 0.86 | 0.764 | 0.86 | 0.836 | 0.871 | 0.727 | 0.599 | 0.337 | 0.268 |
| HARA | 1.13 | 0.95 | 0.963 | 0.943 | 1.12 | 0.416 | 0.386 | 0.431 | 0.483 | 0.497 | 0.914 | 0.77 | 0.929 | 0.968 | 1.02 | 0.31 | 0.129 | 0.298 | 0.291 | 0.184 |
| NCI-H650 | 1.1 | 0.963 | 1.04 | 0.845 | 1.03 | 0.893 | 0.873 | 0.763 | 0.39 | 0.528 | 0.836 | 0.793 | 0.941 | 0.811 | 0.54 | 0.75 | 0.896 | 1.01 | 0.606 | 0.4 |
| NCI-H1975 | 1.23 | 1.01 | 0.98 | 1.1 | 0.961 | 0.282 | 0.308 | 0.232 | 0.287 | 0.281 | 1.01 | 1 | 0.892 | 0.863 | 0.956 | 0.714 | 0.538 | 0.578 | 0.442 | 0.317 |
| NCI-H2085 | 1.06 | 0.981 | 1.04 | 0.871 | 1.06 | 0.499 | 0.496 | 0.445 | 0.5 | 0.537 | 0.669 | 0.866 | 0.843 | 0.84 | 0.942 | 0.992 | 0.688 | 0.436 | 0.39 | 0.2 |
| NCI-H3122 | 1.01 | 1 | 1.03 | 1.01 | 1.01 | 0.695 | 0.458 | 0.614 | 0.708 | 0.971 | 1.02 | 0.934 | 1.1 | 1.18 | 1.13 | 0.991 | 0.982 | 0.951 | 0.876 | 0.643 |
| NCI-H1651 | 1.06 | 0.95 | 1.03 | 1.02 | 1.04 | 0.525 | 0.38 | 0.329 | 0.491 | 0.572 | 0.928 | 1.02 | 0.973 | 0.884 | 0.996 | 0.475 | 0.384 | 0.382 | 0.374 | 0.333 |

— the supplement of paper PMC10307832
